Measured values published in US20260152501A1, “CYCLIN MODULATOR” (EUBULUS BIOTHERAPEUTICS (HONG KONG) LIMITED, priority 2022, published 2026).
Where two headings read alike, the source gives them in different places.

What was measured:
Assay type in all cases: cell-based
[1] = tested on: H82 cells; assay: Cell proliferation experiment, H82 cells; details: Homo sapiens, NCI-H82, cultured for 72 hours, Cell Titer-Glo, read-out: Cell antiproliferation data H82
Description: (§1) Reagents: RPMI-1640 medium, McCoy's 5A medium, IMDM medium, MEM medium, L-15 medium, fetal bovine serum, Penicillin-Streptomycin double antibody, trypsin, etc., 2-mercaptoethanol, NEAA, pyruvate, etc.
(§2) The test cells were cultured in conventional ways, and the cells should be passed for at least 2 generations before plating.
(§3) 25 μL of 1500 H82 and H69 cells were inoculated in a 384-well plate with black wall and transparent bottom, 25 μL of different concentrations of compounds were added, and the cells were cultured for 72 hours under condition of 37° C. and 5% CO2. The 384-well plate was equilibrated at room temperature, 25 μL of Cell Titer-Glo® reagent was added to each well, and the cells were lysed by shaking on a horizontal shaking shaker for 2 minutes, incubated at room temperature for 10 minutes to stabilize the luminescent signal, and then the chemiluminescent signal was detected using Envision.
(§4) All cells were subjected to IC50 test for corresponding samples. […]
(§5) IC50 was calculated according to the following formula:
(§6) [formula] • wherein, Min, Max and Slope represent the minimum, maximum and slope respectively.

[2] = tested on: Colo-205 cells; assay: Cell proliferation experiment, Colo-205 cells; details: Cell Titer-Glo, read-out: Cell antiproliferation data Colo-205
Description: as §1, §2
(§7) 25 μL of 1000 HT-29, N87, SKOV3, Colo-205 and MDA-MB-231 cells were inoculated in a 384-well plate with black wall and transparent bottom, 25 μL of different concentrations of compounds were added, and the cells were cultured overnight under condition of 37° C. and 5% CO2.
as §3
(§8) All cells were subjected to IC50 test for corresponding samples.
(§9) The fluorescence intensity of each well was detected using the Alarm blue method, and EC50 was calculated.
as §5, §6

[3] = tested on: MDA-MB-231 cells; assay: Cell proliferation experiment, MDA-MB-231 cells; details: Cell Titer-Glo, read-out: Cell antiproliferation data MDA-MB-231
Description: as §1, §2, §7, §3, §8, §9, §5, §6

[4] = tested on: H69 cells; assay: Cell proliferation experiment, H69 cells; details: cultured for 72 hours, Cell Titer-Glo, read-out: Cell antiproliferation data H69
Description: as §1, §2, §3, §4, §5, §6

[5] = tested on: N87 cells; assay: Cell proliferation experiment, N87 cells; details: Cell Titer-Glo, read-out: Cell antiproliferation data N87
Description: as §1, §2, §7, §3, §8, §9, §5, §6

[6] = tested on: SKOV3 cells; assay: Cell proliferation experiment, SKOV3 cells; details: Cell Titer-Glo, read-out: Cell antiproliferation data SKOV3
Description: as §1, §2, §7, §3, §8, §9, §5, §6

[7] = tested on: HT-29 cells; assay: Cell proliferation experiment, HT-29 cells; details: Cell Titer-Glo, read-out: Cell antiproliferation data HT-29
Description: as §1, §2, §7, §3, §8, §9, §5, §6

[8] = Homo sapiens, COLO 205, Colo-205 cells
[9] = Homo sapiens, SK-OV-3, SKOV3 cells

| IC50 [2, 8] | IC50 ([3]; Homo sapiens) | IC50 [6, 9] | IC50 ([7]; Homo sapiens) | IC50 ([2]; Colo-205 cells) | IC50 [3] | IC50 ([6]; SKOV3 cells) | IC50 [7] | SMILES | IC50 [1] | IC50 ([4]; Homo sapiens, NCI-H69, 72 h) | IC50 [5] | IC50 [4] |
| --- | --- | --- | --- | --- | --- | --- | --- | --- | --- | --- | --- | --- |
| ≤ 100 nM | ≤ 100 nM | 100 to 300 nM | ≤ 100 nM |  |  |  |  | CC(C)n1cnc2c(NCc3ccc(-c4ccccc4)cc3)nc(N3CCC[C@@H](N)C3)nc21 [UB-013, (R)-N-([1,1′-biphenyl]-4-ylmethyl)-2-(3-aminopiperidin-1-yl)-9-isopropyl-9H-purin-6-amine] | ≤ 100 nM | 100 to 300 nM | ≤ 100 nM |  |
| ≤ 100 nM | ≤ 100 nM | 100 to 300 nM | ≤ 100 nM |  |  |  |  | CC(C)n1cnc2c(NCc3ccc(-c4ccccc4)cc3)nc(N3CCC[C@H](N)C3)nc21 [UB-012, (S)-N-([1,1′-biphenyl]-4-ylmethyl)-2-(3-aminopiperidin-1-yl)-9-isopropyl-9H-purin-6-amine] | ≤ 100 nM | 100 to 300 nM | ≤ 100 nM |  |
| > 300 nM | > 300 nM | > 300 nM | > 300 nM |  |  |  |  | CC(C)n1cnc2c(NCc3ccc(-c4ccccc4)cc3)nc(N3CCCCC3)nc21 [UB-008, N-([1,1′-biphenyl]-4-ylmethyl)-9-isopropyl-2-(Piperidin-1-yl)-9H-purin-6-amine] | > 300 nM | > 300 nM | > 300 nM |  |
|  |  |  |  | ≤ 100 nM | ≤ 100 nM | ≤ 100 nM | ≤ 100 nM | CCn1cnc2c(NCc3ccc(-c4cccc(CO)c4)cc3)nc(N3CCNCC3)nc21 [UB-005] | ≤ 100 nM |  | ≤ 100 nM | ≤ 100 nM |
| > 300 nM | 100 to 300 nM | > 300 nM | 100 to 300 nM |  |  |  |  | CC(C)n1cnc2c(NCc3ccc(-c4ccccc4)cc3)nc(N3CCN(C)CC3)nc21 [UB-011, N-([1,l′-biphenyl]-4-ylmethyl)-9-isopropyl-2-(4-methylpiperazin-1-yl)-9H-purin-6-amine] | 100 to 300 nM | > 300 nM | 100 to 300 nM |  |
